Results as given in patent US20130274258A1, “CARBAZOLE AND CARBOLINE DERIVATIVES, AND PREPARATION AND THERAPEUTIC APPLICATIONS THEREOF” (PHILIP MORRIS PRODUCTS S.A., priority 2010, published 2013).
Where two headings read alike, the source gives them in different places. One block for each compound: values may come before it.

Columns and labels:
[1] = tested on: fibrosarcoma HT1080; experiment: Xenograft model in nude mice, fibrosarcoma HT1080; type: in vivo, human; details: reference compound
Protocol: (§1) The compounds of the invention were evaluated in human tumor xenograft mouse models. Nude mice were subcutaneously implanted with tumor cells (melanoma A2058, colon carcinoma HCT116, fibrosarcoma HT1080 and acute myelocytic leukemia MV114) and when the tumor reached a volume of about 100-150 mm^3, treatment was initiated. Tumor growth was followed over time until tumor volume reached 1000-1500 mm^3 or up to 60 days. An example of how tumor developed over time when the animals were administered or not with E3 three times once a week (qwk×3) is presented in FIG. 7. […]

[2] = tested on: Jurkat cells; experiment: Jurkat cell viability, resazurin (Alamar Blue) assay; type: cell-based; details: Homo sapiens
Protocol: The compounds were tested for pharmacological activity. In each of the tests, each compound was tested at […] in duplicates. […] The percentage of response relative to the DMSO control was then calculated for the mean value of the duplicates of each test. The values of the three tests were finally averaged and the standard deviations calculated.
Jurkat cells (10'000 cells/well) were incubated in the presence of various concentrations of compounds, doxorubicin or staurosporine. Twenty-two hours later, cells were incubated with resazurin (20 μg/ml) for 4 hours and fluorescence was measured at 590 nm.

[3] = target: purified porcine tubulin (Sus scrofa, UniProt P02550+P02554); experiment: Inhibition of 3H-labeled colchicine binding to purified tubulin, scintillation proximity assay; details: graded doses
Protocol: A series of compounds according to the invention and C14 vincristine and colchicine were tested for their capacity to inhibit ^3H-labeled colchicine binding to purified tubulin. Briefly, a limiting amount of tritium-labeled colchicine and graded doses of test compounds were added to purified porcine tubulin. After an incubation period, radioactivity associated with tubulin was determined using a scintillation proximity assay. […] By showing that these compounds interact with the colchicine binding site, it differentiates them from the tubulin inhibitors of the Vinca alkaloid- and taxane-types. The results also indicate that the compounds of the invention can be used in combination with the Vinca alkaloid- and taxane-types of tubulin inhibitors since they bind to a different aspect of tubulin, and likely affect tubulin polymerization via a different mechanism. The results also indicate that the compounds of the invention can be used even in patients who are refractory or non-responsive to other tubulin inhibitors, such as the tubulin inhibitors of the Vinca alkaloid- and taxane-types.

[4] = tested on: caspase 3 and 7; experiment: Apoptosis induction in Jurkat cells, caspase 3 and 7 assay; type: cell-based; details: for IC50: Homo sapiens, Jurkat cells, caspase 3/7 assay
Protocol: Compounds were assessed for their ability to induce apoptosis of Jurkat cells at 2 and 10 micromolar after 4 and 22 hours.
In order to firmly establish that the compounds of the invention cause cytotoxicity through apoptosis, IC50 of five compounds of the invention, doxorubicin and staurosporin were determined in the caspase assays; results are presented in Table 2. Importantly, the IC50 determined in the Alamar Blue and in the caspase assays were largely overlapping.

[5] = Solubilization in intravenous formulation; type: physicochemical; details: 5% Cremophor and 5% ethanol in water
Text: This formulation was then used for the subsequent animal studies (maximal tolerated dose, pharmacokinetics and efficacy in cancer models).

[6] = Pharmacokinetics after intravenous injection, plasma concentration; type: in vivo; details: mice, intravenous, after four hours
Protocol: The pharmacokinetics of E3 and E35 were investigated. Mice intravenously injected with 15 mg/kg of E3 were bled after 0, 1, 5, 10, 20, 30, 60, 120 and 480 minutes. […] For E35, mice intravenously injected with 30 mg/kg of […] were bled after 0, 1, 5, 10, 20, 30, 60, 120 and 480 minutes. […] Concentration then decreased steadily over the 8 hours of the study. During the first four hours after injection, circulating concentrations of E3 and E35 were found largely similar.

[7] = tested on: colon carcinoma HCT116; experiment: Xenograft model in nude mice, colon carcinoma HCT116; type: in vivo, human; details: reference compound
Protocol: as §1

[8] = tested on: melanoma A2058; experiment: Xenograft model in nude mice, melanoma A2058; type: in vivo, human; details: reference compound
Protocol: as §1

[9] = tested on: acute myelocytic leukemia MV114; experiment: Xenograft model in nude mice, acute myelocytic leukemia MV114; type: in vivo, human; details: reference compound
Protocol: as §1

[10] = Jurkat cells, 22 h then resazurin 4 h, three experiments in duplicates, read-out: IC50
[11] = Jurkat, control compounds of the tests, read-out: IC50 of control agents included in each test

Sequence of purified porcine tubulin (P02554 whole entry): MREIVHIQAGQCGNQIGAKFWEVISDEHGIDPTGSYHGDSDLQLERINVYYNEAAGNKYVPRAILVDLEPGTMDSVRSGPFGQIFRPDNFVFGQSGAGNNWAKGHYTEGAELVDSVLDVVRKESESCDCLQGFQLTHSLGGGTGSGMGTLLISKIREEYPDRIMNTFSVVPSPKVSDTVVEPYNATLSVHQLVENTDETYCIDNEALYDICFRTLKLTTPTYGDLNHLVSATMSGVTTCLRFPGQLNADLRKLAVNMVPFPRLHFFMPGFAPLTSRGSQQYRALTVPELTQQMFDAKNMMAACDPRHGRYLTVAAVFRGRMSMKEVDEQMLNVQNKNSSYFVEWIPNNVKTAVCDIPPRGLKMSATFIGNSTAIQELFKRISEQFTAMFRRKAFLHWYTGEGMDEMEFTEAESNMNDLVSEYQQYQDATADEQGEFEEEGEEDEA
Sequence of purified porcine tubulin (P02550 whole entry): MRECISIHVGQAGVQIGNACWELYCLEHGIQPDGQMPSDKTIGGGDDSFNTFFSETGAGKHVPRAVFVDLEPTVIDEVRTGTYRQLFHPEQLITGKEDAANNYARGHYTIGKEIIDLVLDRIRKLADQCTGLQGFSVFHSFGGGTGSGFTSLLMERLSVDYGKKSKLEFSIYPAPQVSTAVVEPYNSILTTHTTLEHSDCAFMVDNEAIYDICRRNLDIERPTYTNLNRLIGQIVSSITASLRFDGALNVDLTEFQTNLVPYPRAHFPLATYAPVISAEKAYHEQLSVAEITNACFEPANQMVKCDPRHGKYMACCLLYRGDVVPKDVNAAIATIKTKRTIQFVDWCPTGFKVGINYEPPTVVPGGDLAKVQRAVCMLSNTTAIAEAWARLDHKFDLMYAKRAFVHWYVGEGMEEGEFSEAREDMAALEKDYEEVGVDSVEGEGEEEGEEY

Compound: CC(=O)O[C@@]12CO[C@@H]1C[C@H](O)[C@@]1(C)C(=O)[C@H](O)C3=C(C)[C@@H](OC(=O)[C@H](O)[C@@H](NC(=O)OC(C)(C)C)c4ccccc4)C[C@@](O)([C@@H](OC(=O)c4ccccc4)[C@H]21)C3(C)C [Docetaxel, reference compound]
Control with reference compound and days to study endpoint [1]: not reached by day 58 days

Compound: COc1cc(-c2ccc3[nH]c4c(C)nccc4c3c2)cc(OC)c1OC [Example C14]
IC50 [2, 10]: > 10000 nM
inhibition of 3H-labeled colchicine binding to tubulin [3]: did not inhibit colchicine binding

Compound: Cc1nccc2c1[nH]c1ccc(-c3ccccc3)cc12 [Example E1, 6-phenyl-1-methyl-9H-pyrido[3,4-b]indole]
IC50 [2, 10]: 413 nM
caspase 3 and 7 activity compared to solvent control (%) ([4]; 2 μM after 4 h): −8.5%
caspase 3 and 7 activity compared to solvent control (%) ([4]; 2 μM after 22 h): 618.5%
caspase 3 and 7 activity compared to solvent control (%) ([4]; 10 μM after 4 h): −10.0%
caspase 3 and 7 activity compared to solvent control (%) ([4]; 10 μM after 22 h): 535.9%

Compound: Cc1nccc2c1[nH]c1ccc(-c3cccc(Cl)c3)cc12 [Example E2, 6-(3-chlorophenyl)-1-methyl-9H-pyrido[3,4-b]indole]
IC50 [2, 10]: 104 nM
IC50 [4]: 0.108 µM

Compound: Cc1nccc2c1[nH]c1ccc(-c3cccc(C(F)(F)F)c3)cc12 [Example E6, 6-(3-(trifluoromethyl)phenyl)-1-methyl-9H-pyrido[3,4-b]indole]
IC50 [2, 10]: 1260 nM
caspase 3 and 7 activity compared to solvent control (%) ([4]; 2 μM after 4 h): 9.2%
caspase 3 and 7 activity compared to solvent control (%) ([4]; 2 μM after 22 h): 482.6%
caspase 3 and 7 activity compared to solvent control (%) ([4]; 10 μM after 4 h): 11.2%
caspase 3 and 7 activity compared to solvent control (%) ([4]; 10 μM after 22 h): 585.1%

Compound: CCOc1ccc(F)c(-c2ccc3[nH]c4c(C)nccc4c3c2)c1 [Example E7, 6-(5-ethoxy-2-fluorophenyl)-1-methyl-9H-pyrido[3,4-b]indole]
IC50 [2, 10]: 775 nM
caspase 3 and 7 activity compared to solvent control (%) ([4]; 2 μM after 4 h): −7.6%
caspase 3 and 7 activity compared to solvent control (%) ([4]; 2 μM after 22 h): 616.1%
caspase 3 and 7 activity compared to solvent control (%) ([4]; 10 μM after 4 h): −10.2%
caspase 3 and 7 activity compared to solvent control (%) ([4]; 10 μM after 22 h): 548.1%

Compound: COc1cccc(-c2ccc3[nH]c4c(C)nccc4c3c2)c1 [Example E9, 6-(3-methoxyphenyl)-1-methyl-9H-pyrido[3,4-b]indole]
IC50 [2, 10]: 137 nM
IC50 [4]: 0.215 µM

Compound: CCc1nccc2c1[nH]c1ccc(-c3cccc(C(N)=O)c3)cc12 [Example E35, 6-(3-aminocarbonylphenyl)-1-ethyl-9H-pyrido[3,4-b]indole]
IC50 ([2]; Jurkat): 4 nM
inhibition of 3H-labeled colchicine binding to tubulin [3]: inhibited binding of colchicine
suitability of the formulation [5]: adequate
circulating concentration compared with E3 [6]: substantially lower circulating concentration than E3

Compound: CCc1nccc2c1[nH]c1ccc(-c3cccc(NS(C)(=O)=O)c3)cc12 [Example E44, N-(3-(1-ethyl-9H-pyrido[3,4-b]indol-6-yl)phenyl)methanesulfonamide]
IC50 ([2]; Jurkat): 90 nM
inhibition of 3H-labeled colchicine binding to tubulin [3]: inhibited binding of colchicine
suitability of the formulation [5]: adequate

Compound: CCc1c2c(nc3ccc(OC(=O)N4CCC(N5CCCCC5)CC4)cc13)-c1cc3c(c(=O)n1C2)COC(=O)[C@]3(O)CC [Irinotecan, reference compound]
Control with reference compound and days to study endpoint [7]: not reached by day 58 days

Compound: CC[C@]1(O)C[C@@H]2CN(CCc3c([nH]c4ccccc34)[C@@](C(=O)OC)(c3cc4c(cc3OC)N(C)[C@H]3[C@@](O)(C(=O)OC)[C@H](OC(C)=O)[C@]5(CC)C=CCN6CC[C@]43[C@@H]65)C2)C1 [Vinblastine, reference compound]
Control with reference compound and days to study endpoint [8]: Vinblastine, 45 days
Control with reference compound and days to study endpoint [9]: not reached by day 58 days

Compound: CN[C@@H]1C[C@H]2O[C@@](C)([C@@H]1OC)n1c3ccccc3c3c4c(c5c6ccccc6n2c5c31)C(=O)NC4 [staurosporine, reference compound]
IC50 [2, 11]: 31 nM

Further lines, with some results ahead:

IC50 [2, 10]: 47 nM
IC50 [4]: 0.061 µM
Compound: Cc1nccc2c1[nH]c1ccc(-c3cccc(C#N)c3)cc12 [Example E21, 6-(3-cyanophenyl)-1-methyl-9H-pyrido[3,4-b]indole]

IC50 [2, 10]: 602 nM
Compound: Cc1nccc2c1[nH]c1ccc(-c3cccnc3)cc12 [Example E25, 6-(pyridine-3-yl)-1-methyl-9H-pyrido[3,4-b]indole]
caspase 3 and 7 activity compared to solvent control (%) ([4]; 2 μM after 4 h): −0.6%
caspase 3 and 7 activity compared to solvent control (%) ([4]; 2 μM after 22 h): 624.4%
caspase 3 and 7 activity compared to solvent control (%) ([4]; 10 μM after 4 h): 18.7%
caspase 3 and 7 activity compared to solvent control (%) ([4]; 10 μM after 22 h): 405.7%

IC50 [2, 10]: 64 nM
IC50 [4]: 0.128 µM
Compound: Cc1nccc2c1[nH]c1ccc(-c3ccc4c(c3)CCO4)cc12 [Example E29, 6-(2,3-dihydrobenzofuran-5-yl)-1-methyl-9H-pyrido[3,4-b]indole]

IC50 [2, 10]: 18 nM
Compound: CCc1nccc2c1[nH]c1ccc(-c3cccc(NC(C)=O)c3)cc12 [Example E52, N-(3-(1-ethyl-9H-pyrido[3,4-b]indol-6-yl)phenyl)acetamide]

IC50 [2, 10]: 2610 nM
Compound: COc1cncc(-c2ccc3[nH]c4c(C)nccc4c3c2)c1 [Example E53, 6-(5-methoxypyridin-3-yl)-1-methyl-9H-pyrido[3,4-b]indole]

IC50 [2, 10]: 53 nM
Compound: Cc1nccc2c1[nH]c1ccc(-c3ccc4c(c3)CCCO4)cc12 [Example E54, 6-(chroman-6-yl)-1-methyl-9H-pyrido[3,4-b]indole]

IC50 [2, 10]: 2200 nM
Compound: Cc1nccc2c1[nH]c1ccc(-c3cccc(-c4ccco4)c3)cc12 [Example E55, 6-(3-(furan-2-yl)phenyl)-1-methyl-9H-pyrido[3,4-b]indole]

IC50 [2, 10]: 733 nM
Compound: Cc1nccc2c1[nH]c1ccc(-c3cccc(CN4CCOCC4)c3)cc12 [Example E56]

IC50 [2, 10]: 200 nM
Compound: Cc1nccc2c1[nH]c1ccc(-c3cccc(CN4CCN(C)CC4)c3)cc12 [Example E57, 6-(3-((4-methylpiperazin-1-yl)methyl)phenyl)-1-methyl 9H-pyrido[3,4-b]indole]

IC50 [2, 10]: 3750 nM
Compound: Cc1cccc2c1[nH]c1ccc(-c3ccc4c(c3)CCO4)cc12 [Example E58, 6-(2,3-dihydrobenzofuran-5-yl)-1-methyl-9H-carbazole]

IC50 [2, 10]: 913 nM
Compound: Cc1nccc2c1[nH]c1ccc(-c3cccc(-n4cccn4)c3)cc12 [Example E59, 6-(3-(1H-pyrazol-1-yl)phenyl)-1-methyl-9H-pyrido[3,4-b]indole]

IC50 [2, 10]: 25 nM
Compound: Cc1c2[nH]c3ccc(-c4cc(Cl)cc(Cl)c4)cc3c2cc[n+]1[O-] [Example E60, 6-(3,5-dichlorophenyl)-1-methyl-9H-pyrido[3,4-b]indole 2-oxide]

IC50 [2, 11]: 85 nM
Compound: COc1cccc2c1C(=O)c1c(O)c3c(c(O)c1C2=O)C[C@@](O)(C(=O)CO)C[C@@H]3O[C@H]1C[C@H](N)[C@H](O)[C@H](C)O1 [doxorubicin, reference compound]
